For eight cell lines, relative viability results are on record in the supplement of paper PMC10307832.

What all share (assay): relative viability (nuclei count vs DMSO), 5 days (fraction); higher = more cells survive
Compound in the assay “Ibrutinib + Foretinib”: C=CC(=O)N1CCC[C@@H](n2nc(-c3ccc(Oc4ccccc4)cc3)c3c(N)ncnc32)C1 [Ibrutinib] + COc1cc2c(Oc3ccc(NC(=O)C4(C(=O)Nc5ccc(F)cc5)CC4)cc3F)ccnc2cc1OCCCN1CCOCC1 [Foretinib] (partner 0.25 µM)
Summed up: (§1)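 Lung cancer cell lines, seeded in 1536-well plates, were treated the following day by pin tool with a single drug or with five library-drug doses (not always all listed) in √10 steps on top of a fixed anchor-drug dose. Cells were fixed and nuclei stained in one step after 5 days, and nuclei were counted. Relative viability is the nuclei count for treated wells divided by that for vehicle wells, reported as medians of duplicate plates.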

Compound in the assay “BMX-IN-1 + Tozasertib”: C=CC(=O)Nc1cc(-n2c(=O)ccc3cnc4ccc(-c5ccc(NS(C)(=O)=O)cc5)cc4c32)ccc1C [BMX-IN-1] + Cc1cc(Nc2cc(N3CCN(C)CC3)nc(Sc3ccc(NC(=O)C4CC4)cc3)n2)n[nH]1 [Tozasertib] (partner 0.1 µM)
Put shortly:
as §1

Compound in the assay “BMX-IN-1 + AZD7762”: C=CC(=O)Nc1cc(-n2c(=O)ccc3cnc4ccc(-c5ccc(NS(C)(=O)=O)cc5)cc4c32)ccc1C [BMX-IN-1] + NC(=O)Nc1cc(-c2cccc(F)c2)sc1C(=O)N[C@H]1CCCNC1 [AZD7762] (partner 0.2 µM)
Put shortly:
as §1

Compound in the assay “PAC-1 + Vorinostat”: C=CCc1cccc(/C=N/NC(=O)CN2CCN(Cc3ccccc3)CC2)c1O [PAC-1] + O=C(CCCCCCC(=O)Nc1ccccc1)NO [Vorinostat] (partner 1 µM)
Put shortly: as §1

As to NCI-H838, the relative viability with Ibrutinib + Foretinib (first compound 0.005 µM) is 0.929; with Ibrutinib + Foretinib (first compound 0.01581 µM), 0.985; with Ibrutinib + Foretinib (first compound 0.05 µM), 1.07; in the assay with Ibrutinib + Foretinib (first compound 0.1581 µM) it was 1.01; in the assay with Ibrutinib + Foretinib (first compound 0.5 µM), 1.02; in the assay with BMX-IN-1 + Tozasertib (first compound 0.02 µM), 0.322. Moreover, the relative viability with BMX-IN-1 + Tozasertib (first compound 0.2 µM) was 0.318; with BMX-IN-1 + Tozasertib (first compound 0.6325 µM) it was 0.279; in the assay with BMX-IN-1 + Tozasertib (first compound 2 µM), 0.313; with BMX-IN-1 + AZD7762 (first compound 0.02 µM), 1.06; with BMX-IN-1 + AZD7762 (first compound 0.2 µM) it was 1.01; with BMX-IN-1 + AZD7762 (first compound 0.6325 µM), 0.956. Further, the relative viability with BMX-IN-1 + AZD7762 (first compound 2 µM) came to 1.01; with PAC-1 + Vorinostat (first compound 0.02 µM), 0.68; in the assay with PAC-1 + Vorinostat (first compound 0.06325 µM) it was 0.72; with PAC-1 + Vorinostat (first compound 0.2 µM), 0.782; in the assay with PAC-1 + Vorinostat (first compound 2 µM), 0.745.

In the case of NCI-H1355, the relative viability with Ibrutinib + Foretinib (first compound 0.005 µM) came out at 0.863; in the assay with Ibrutinib + Foretinib (first compound 0.01581 µM), 0.88; with Ibrutinib + Foretinib (first compound 0.05 µM), 0.848; with Ibrutinib + Foretinib (first compound 0.1581 µM), 0.981; with Ibrutinib + Foretinib (first compound 0.5 µM) it was 0.793; in the assay with BMX-IN-1 + Tozasertib (first compound 0.02 µM), 0.607. The relative viability was found to be 0.664 with BMX-IN-1 + Tozasertib (first compound 0.2 µM); 0.532 with BMX-IN-1 + Tozasertib (first compound 0.6325 µM); 0.518 with BMX-IN-1 + Tozasertib (first compound 2 µM); 0.872 in the assay with BMX-IN-1 + AZD7762 (first compound 0.02 µM); 0.85 in the assay with BMX-IN-1 + AZD7762 (first compound 0.2 µM); 0.838 with BMX-IN-1 + AZD7762 (first compound 0.6325 µM). Further, the relative viability is 0.755 with BMX-IN-1 + AZD7762 (first compound 2 µM); 0.61 with PAC-1 + Vorinostat (first compound 0.02 µM); 0.625 with PAC-1 + Vorinostat (first compound 0.06325 µM); 0.572 with PAC-1 + Vorinostat (first compound 0.2 µM); 0.665 with PAC-1 + Vorinostat (first compound 2 µM).

As for NCI-H1395, the relative viability with Ibrutinib + Foretinib (first compound 0.005 µM) turned out to be 0.913; with Ibrutinib + Foretinib (first compound 0.01581 µM) it was 0.922; in the assay with Ibrutinib + Foretinib (first compound 0.05 µM), 1.02; with Ibrutinib + Foretinib (first compound 0.1581 µM) it was 0.982; with Ibrutinib + Foretinib (first compound 0.5 µM) it was 0.907; in the assay with BMX-IN-1 + Tozasertib (first compound 0.02 µM), 0.832. Moreover, the relative viability turned out to be 0.793 in the assay with BMX-IN-1 + Tozasertib (first compound 0.2 µM); 0.701 in the assay with BMX-IN-1 + Tozasertib (first compound 0.6325 µM); 0.715 with BMX-IN-1 + Tozasertib (first compound 2 µM); 0.4 with BMX-IN-1 + AZD7762 (first compound 0.02 µM); 0.407 with BMX-IN-1 + AZD7762 (first compound 0.2 µM); 0.434 with BMX-IN-1 + AZD7762 (first compound 0.6325 µM). The relative viability with BMX-IN-1 + AZD7762 (first compound 2 µM) came out at 0.376; with PAC-1 + Vorinostat (first compound 0.02 µM), 0.704; in the assay with PAC-1 + Vorinostat (first compound 0.06325 µM), 0.747; in the assay with PAC-1 + Vorinostat (first compound 0.2 µM), 0.784; in the assay with PAC-1 + Vorinostat (first compound 2 µM) it was 0.623.

On to NCI-H1437, for which the relative viability with Ibrutinib + Foretinib (first compound 0.005 µM) was determined as 1.33; in the assay with Ibrutinib + Foretinib (first compound 0.01581 µM), 1.19; with Ibrutinib + Foretinib (first compound 0.05 µM), 1.26; with Ibrutinib + Foretinib (first compound 0.1581 µM), 1.28; in the assay with Ibrutinib + Foretinib (first compound 0.5 µM), 1.27; in the assay with BMX-IN-1 + Tozasertib (first compound 0.02 µM), 0.497. The relative viability with BMX-IN-1 + Tozasertib (first compound 0.2 µM) came to 0.43; in the assay with BMX-IN-1 + Tozasertib (first compound 0.6325 µM), 0.38; with BMX-IN-1 + Tozasertib (first compound 2 µM), 0.414; with BMX-IN-1 + AZD7762 (first compound 0.02 µM), 1.26; with BMX-IN-1 + AZD7762 (first compound 0.2 µM), 1.26; with BMX-IN-1 + AZD7762 (first compound 0.6325 µM) it was 1.11. Moreover, the relative viability with BMX-IN-1 + AZD7762 (first compound 2 µM) stood at 1.11; in the assay with PAC-1 + Vorinostat (first compound 0.02 µM), 0.831; in the assay with PAC-1 + Vorinostat (first compound 0.06325 µM), 0.816; with PAC-1 + Vorinostat (first compound 0.2 µM) it was 0.717; in the assay with PAC-1 + Vorinostat (first compound 2 µM), 0.563.

As for NCI-H1651, the relative viability with Ibrutinib + Foretinib (first compound 0.005 µM) amounted to 0.928; with Ibrutinib + Foretinib (first compound 0.01581 µM), 0.931; with Ibrutinib + Foretinib (first compound 0.05 µM) it was 0.896; with Ibrutinib + Foretinib (first compound 0.1581 µM), 0.882; with Ibrutinib + Foretinib (first compound 0.5 µM), 0.615; in the assay with BMX-IN-1 + Tozasertib (first compound 0.02 µM), 0.848. The relative viability with BMX-IN-1 + Tozasertib (first compound 0.2 µM) was determined as 1; in the assay with BMX-IN-1 + Tozasertib (first compound 0.6325 µM), 0.735; in the assay with BMX-IN-1 + Tozasertib (first compound 2 µM), 0.731; in the assay with BMX-IN-1 + AZD7762 (first compound 0.02 µM) it was 0.557; with BMX-IN-1 + AZD7762 (first compound 0.2 µM), 0.503; with BMX-IN-1 + AZD7762 (first compound 0.6325 µM) it was 0.527. Also, the relative viability was determined as 0.422 with BMX-IN-1 + AZD7762 (first compound 2 µM); 0.544 in the assay with PAC-1 + Vorinostat (first compound 0.02 µM); 0.531 with PAC-1 + Vorinostat (first compound 0.06325 µM); 0.489 with PAC-1 + Vorinostat (first compound 0.2 µM); 0.588 in the assay with PAC-1 + Vorinostat (first compound 2 µM).

As to NCI-H1666, the relative viability came out at 0.981 with Ibrutinib + Foretinib (first compound 0.005 µM); 0.919 with Ibrutinib + Foretinib (first compound 0.01581 µM); 0.919 with Ibrutinib + Foretinib (first compound 0.05 µM); 0.988 with Ibrutinib + Foretinib (first compound 0.1581 µM); 0.74 in the assay with Ibrutinib + Foretinib (first compound 0.5 µM); 0.595 with BMX-IN-1 + Tozasertib (first compound 0.02 µM). Further, the relative viability with BMX-IN-1 + Tozasertib (first compound 0.2 µM) was found to be 0.57; in the assay with BMX-IN-1 + Tozasertib (first compound 0.6325 µM), 0.624; with BMX-IN-1 + Tozasertib (first compound 2 µM), 0.593; in the assay with BMX-IN-1 + AZD7762 (first compound 0.02 µM) it was 0.804; with BMX-IN-1 + AZD7762 (first compound 0.2 µM), 0.886; in the assay with BMX-IN-1 + AZD7762 (first compound 0.6325 µM), 0.901. Besides, the relative viability with BMX-IN-1 + AZD7762 (first compound 2 µM) came out at 0.871; in the assay with PAC-1 + Vorinostat (first compound 0.02 µM), 1.08; with PAC-1 + Vorinostat (first compound 0.06325 µM), 1.03; in the assay with PAC-1 + Vorinostat (first compound 0.2 µM), 1; with PAC-1 + Vorinostat (first compound 2 µM), 1.09.

For NCI-H1734, the relative viability with Ibrutinib + Foretinib (first compound 0.005 µM) was 0.827; in the assay with Ibrutinib + Foretinib (first compound 0.01581 µM), 0.822; with Ibrutinib + Foretinib (first compound 0.05 µM), 0.965; in the assay with Ibrutinib + Foretinib (first compound 0.1581 µM) it was 0.895; with Ibrutinib + Foretinib (first compound 0.5 µM), 0.718; with BMX-IN-1 + Tozasertib (first compound 0.02 µM) it was 0.292. Further, the relative viability with BMX-IN-1 + Tozasertib (first compound 0.2 µM) was determined as 0.285; in the assay with BMX-IN-1 + Tozasertib (first compound 0.6325 µM), 0.256; with BMX-IN-1 + Tozasertib (first compound 2 µM) it was 0.229; with BMX-IN-1 + AZD7762 (first compound 0.02 µM), 0.683; in the assay with BMX-IN-1 + AZD7762 (first compound 0.2 µM), 0.623; with BMX-IN-1 + AZD7762 (first compound 0.6325 µM), 0.542. The relative viability with BMX-IN-1 + AZD7762 (first compound 2 µM) was 0.669; with PAC-1 + Vorinostat (first compound 0.02 µM), 0.825; with PAC-1 + Vorinostat (first compound 0.06325 µM) it was 0.792; with PAC-1 + Vorinostat (first compound 0.2 µM) it was 0.767; with PAC-1 + Vorinostat (first compound 2 µM) it was 0.895.

Take NCI-H1755: the relative viability with Ibrutinib + Foretinib (first compound 0.005 µM) is 0.929; with Ibrutinib + Foretinib (first compound 0.01581 µM) it was 0.925; with Ibrutinib + Foretinib (first compound 0.05 µM), 0.951; with Ibrutinib + Foretinib (first compound 0.1581 µM), 1.02; with Ibrutinib + Foretinib (first compound 0.5 µM) it was 0.855; with BMX-IN-1 + Tozasertib (first compound 0.02 µM), 0.493. For the same cell line, the relative viability is 0.578 in the assay with BMX-IN-1 + Tozasertib (first compound 0.2 µM); 0.577 with BMX-IN-1 + Tozasertib (first compound 0.6325 µM); 0.519 in the assay with BMX-IN-1 + Tozasertib (first compound 2 µM); 0.543 with BMX-IN-1 + AZD7762 (first compound 0.02 µM); 0.491 in the assay with BMX-IN-1 + AZD7762 (first compound 0.2 µM); 0.453 in the assay with BMX-IN-1 + AZD7762 (first compound 0.6325 µM). Further, the relative viability stood at 0.466 with BMX-IN-1 + AZD7762 (first compound 2 µM); 0.777 in the assay with PAC-1 + Vorinostat (first compound 0.02 µM); 0.787 with PAC-1 + Vorinostat (first compound 0.06325 µM); 0.774 in the assay with PAC-1 + Vorinostat (first compound 0.2 µM); 0.718 with PAC-1 + Vorinostat (first compound 2 µM).
